Results from patent US6737383B1, “Herbicidal oxadiazolidines” (priority 1999, dated 2004).

Assays:
[1] = test system: blackgrass; assay: Test B pre/postemergence blackgrass; format: in vivo, Alopecurus myosuroides
Procedure, shortened: (§1)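 Herbicidal effect was estimated by eye on a ten-point control scale after plants spent twelve to sixteen days in a greenhouse following soil or foliar treatment. Foliar sprays targeted plants at one to four leaves; all doses were formulated in a non-phytotoxic solvent with surfactant.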

[2] = test system: smallflower flatsedge; assay: Test B flood test smallflower flatsedge; format: in vivo, Cyperus difformis
Procedure, shortened: (§2)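 Plants were grown to the 2-leaf stage before treatment with test chemical, then held in a greenhouse for twelve to sixteen days. Injury was visually rated against untreated controls on a 0–10 scale, where 0 is no effect and 10 is complete control.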

[3] = test system: crabgrass; assay: Test B pre/postemergence crabgrass; format: in vivo, Digitaria sanguinalis
Procedure, shortened: as §1

[4] = test system: rice; assay: Test B flood test rice; format: in vivo, Oryza sativa
Procedure, shortened: as §2

[5] = test system: bamyardgrass; assay: Test B flood test barnyardgrass; format: in vivo, Echinochloa crus-galli
Procedure, shortened: as §2

[6] = test system: wheat; assay: Test B pre/postemergence wheat; format: in vivo, Triticum aestivum
Procedure, shortened: as §1

[7] = test system: pigweed; assay: Test B pre/postemergence pigweed; format: in vivo, Amaranthus retroflexus
Procedure, shortened: as §1

[8] = test system: giant foxtail; assay: Test B pre/postemergence giant foxtail; format: in vivo, Setaria faberii
Procedure, shortened: as §1

[9] = test system: cocklebur; assay: Test B pre/postemergence cocklebur; format: in vivo, Xanthium strumarium
Procedure, shortened: as §1

[10] = test system: bedstraw; assay: Test B pre/postemergence bedstraw; format: in vivo, Galium aparine
Procedure, shortened: as §1

[11] = test system: morningglory; assay: Test B pre/postemergence morningglory; format: in vivo, Ipomoea hederacea
Procedure, shortened: as §1

[12] = test system: purple nutsedge; assay: Test B pre/postemergence purple nutsedge; format: in vivo, Cyperus rotundus
Procedure, shortened: as §1

[13] = test system: velvetleaf; assay: Test B pre/postemergence velvetleaf; format: in vivo, Abutilon theophrasti
Procedure, shortened: as §1

[14] = test system: wild oat; assay: Test B pre/postemergence wild oat; format: in vivo, Avena fatua
Procedure, shortened: as §1

[15] = test system: surinam grass; assay: Test B pre/postemergence surinam grass; format: in vivo, Brachiaria decumbens
Procedure, shortened: as §1

[16] = test system: soybean; assay: Test B pre/postemergence soybean; format: in vivo, Glycine max
Procedure, shortened: as §1

[17] = Postemergence, Rate 125 g/ha, scale 0 to 10, 0 is no effect, 10 is complete control
[18] = Postemergence, Rate 250 g/ha, scale 0 to 10, 0 is no effect, 10 is complete control
[19] = Postemergence, Rate 500 g/ha, scale of 0 to 10 where 0 is no effect and 10 is complete control
[20] = Preemergence, Rate 62 g/ha, scale 0 to 10 (0 no effect, 10 complete control)
[21] = Preemergence, Rate 125 g/ha, scale of 0 to 10 where 0 is no effect and 10 is complete control
[22] = Preemergence, Rate 250 g/ha, scale of 0 to 10 where 0 is no effect and 10 is complete control
[23] = Preemergence, Rate 500 g/ha, scale 0 to 10, 0 is no effect, 10 is complete control
[24] = Rate 62 g/ha, Postemergence, scale of 0 to 10 where 0 is no effect and 10 is complete control
[25] = Rate 62 g/ha, flood test species, Pre-emergence, visual evaluation after twelve to sixteen days
[26] = Rate 125 g/ha, under heading Pre-emergence, flood test species, visual evaluation after twelve to sixteen days
[27] = Rate 250 g/ha, Pre-emergence, flood-test species, scale 0 to 10, 0 is no effect, 10 is complete control
[28] = Rate 500 g/ha, Pre-emergence, flood test species, scale 0 to 10 (0 no effect, 10 complete control)
[29] = Preemergence, Rate 250 g/ha, scale 0 to 10, 0 is no effect, 10 is complete control

CC(C)N(C(=O)n1oc(=O)n(CC2CCC2)c1=O)c1ccc(F)cc1 [Compound 403]
Plant response rating, Blackgrass [1, 17]: 9 | Plant response rating, Blackgrass [1, 18]: 10 | Blackgrass plant response rating [1, 19]: 10 | Plant response rating, Blackgrass [1, 20]: 2 | Plant response rating, Blackgrass [1, 21]: 7 | Blackgrass plant response rating [1, 22]: 7 | Blackgrass plant response rating [1, 23]: 9 | Blackgrass plant response rating [1, 24]: 6 | Plant response rating, S. Flatsedge (0 to 10 scale, 0 is no effect, 10 is complete control) [2, 25]: 0 | S. Flatsedge plant response rating (0 to 10 scale, 0 is no effect, 10 is complete control) [2, 26]: 0 | S. Flatsedge plant response rating [2, 27]: 0 | S. Flatsedge plant response rating [2, 28]: 6 | Plant response rating, Crabgrass [3, 17]: 3 | Plant response rating, Crabgrass [3, 18]: 8 | Crabgrass plant response rating [3, 19]: 9 | Plant response rating, Crabgrass [3, 20]: 10 | Plant response rating, Crabgrass [3, 21]: 10 | Crabgrass plant response rating [3, 29]: 10 | Crabgrass plant response rating [3, 23]: 10 | Crabgrass plant response rating [3, 24]: 2 | Plant response rating, Rice (0 to 10 scale, 0 is no effect, 10 is complete control) [4, 25]: 0 | Rice plant response rating (0 to 10 scale, 0 is no effect, 10 is complete control) [4, 26]: 0 | Rice plant response rating [4, 27]: 0 | Rice plant response rating [4, 28]: 0 | Plant response rating, Barnyardgrass (0 to 10 scale, 0 is no effect, 10 is complete control) [5, 25]: 2 | Barnyardgrass plant response rating (0 to 10 scale, 0 is no effect, 10 is complete control) [5, 26]: 4 | Barnyardgrass plant response rating [5, 27]: 2 | Barnyardgrass plant response rating [5, 28]: 7 | Wheat plant response rating [6, 19]: 4 | Plant response rating, Wheat [6, 20]: 0 | Plant response rating, Wheat [6, 21]: 0 | Wheat plant response rating [6, 29]: 0 | Wheat plant response rating [6, 23]: 0 | Wheat plant response rating [6, 24]: 0 | Plant response rating, Redroot pigweed [7, 18]: 1 | Redroot pigweed plant response rating [7, 19]: 2 | Plant response rating, Redroot pigweed [7, 20]: 0 | Plant response rating, Redroot pigweed [7, 21]: 4 | Redroot pigweed plant response rating [7, 29]: 9 | Redroot pigweed plant response rating [7, 23]: 9 | Redroot pigweed plant response rating [7, 24]: 0 | Plant response rating, Giant foxtail [8, 17]: 3 | Plant response rating, Giant foxtail [8, 18]: 9 | Giant foxtail plant response rating [8, 19]: 9 | Plant response rating, Giant foxtail [8, 20]: 10 | Plant response rating, Giant foxtail [8, 21]: 10 | Giant foxtail plant response rating [8, 29]: 10 | Giant foxtail plant response rating [8, 23]: 10 | Giant foxtail plant response rating [8, 24]: 3 | Plant response rating, Cocklebur [9, 17]: 0 | Plant response rating, Cocklebur [9, 18]: 0 | Cocklebur plant response rating [9, 19]: 0 | Plant response rating, Cocklebur [9, 20]: 0 | Plant response rating, Cocklebur [9, 21]: 0 | Cocklebur plant response rating [9, 29]: 0 | Cocklebur plant response rating [9, 24]: 0 | Plant response rating, Bedstraw [10, 17]: 2 | Bedstraw plant response rating [10, 19]: 8 | Plant response rating, Bedstraw [10, 20]: 0 | Plant response rating, Bedstraw [10, 21]: 0 | Bedstraw plant response rating [10, 24]: 0 | Plant response rating, Morningglory [11, 18]: 8 | Morningglory plant response rating [11, 19]: 10 | Plant response rating, Morningglory [11, 20]: 0 | Plant response rating, Morningglory [11, 21]: 0 | Morningglory plant response rating [11, 29]: 0 | Morningglory plant response rating [11, 23]: 0 | Morningglory plant response rating [11, 24]: 2 | Plant response rating, Nutsedge [12, 18]: 0 | Nutsedge plant response rating [12, 19]: 0 | Plant response rating, Nutsedge [12, 20]: 0 | Plant response rating, Nutsedge [12, 21]: 0 | Nutsedge plant response rating [12, 29]: 0 | Nutsedge plant response rating [12, 23]: 0 | Nutsedge plant response rating [12, 24]: 0 | Plant response rating, Velvetleaf [13, 18]: 0 | Velvetleaf plant response rating [13, 19]: 6 | Plant response rating, Velvetleaf [13, 20]: 0 | Plant response rating, Velvetleaf [13, 21]: 0 | Velvetleaf plant response rating [13, 29]: 3 | Velvetleaf plant response rating [13, 23]: 5 | Velvetleaf plant response rating [13, 24]: 0 | Wild oats plant response rating [14, 19]: 5 | Plant response rating, Wild oats [14, 20]: 0 | Plant response rating, Wild oats [14, 21]: 4 | Wild oats plant response rating [14, 29]: 5 | Wild oats plant response rating [14, 23]: 8 | Wild oats plant response rating [14, 24]: 0 | Plant response rating, B. signalgrass [15, 17]: 2 | Plant response rating, B. signalgrass [15, 18]: 3 | B. signalgrass plant response rating [15, 19]: 6 | Plant response rating, B. signalgrass [15, 20]: 3 | Plant response rating, B. signalgrass [15, 21]: 4 | B. signalgrass plant response rating [15, 22]: 5 | B. signalgrass plant response rating ([15]; Preemergence, Rate 500 g/ha, scale of 0 to 10 where 0 is no effect and 10 is complete control): 7 | B. signalgrass plant response rating [15, 24]: 0 | Plant response rating, Soybean [16, 18]: 6 | Soybean plant response rating [16, 19]: 8 | Plant response rating, Soybean [16, 20]: 0 | Plant response rating, Soybean [16, 21]: 0 | Soybean plant response rating [16, 29]: 0 | Soybean plant response rating [16, 23]: 2 | Soybean plant response rating [16, 24]: 4
